{"source": "patent EP0983764A1", "about": "“PREVENTIVES FOR ISCHEMIC HEART DISEASES” (TAISHO PHARMACEUTICAL CO. LTD, priority 1997, dated 1998)", "key": {"[1]": {"test_system": "high fat-loading hamsters", "assay": "Antiarteriosclerotic activity in a model for the treatment of arteriosclerosis in high fat-loading hamsters", "assay_type": "in vivo, male golden hamsters", "conditions": "for Degree of lipid deposition on the arterial wall: 10 weeks, aortic arch, Oil Red O; for Degree of lipid deposition on the arterial wall / Total blood cholesterol: Means ± S.E. (n=5); for Total blood cholesterol: in high fat diet for 10 weeks", "excerpt": "As test animals were used a group of 5 male golden hamsters of 6 weeks (available from Nihon SLC K.K.) Hamsters were fed with the following high fat diet for 10 weeks to prepare a model for arteriosclerosis.\nDuring this period, the compound of the invention was continuously administered to a medicated group, simultaneously with feeding.\nAfter blood collection, the aortic arch was excised and the adventitia was completely stripped off under microscopic observation. The tissue after fixed with 10% neutral buffered formalin was fat-stained with an Oil Red O solution and enclosed in a glycerol-gelatin solution on a slide glass to prepare a tissue preparation.\nAn area of the fat-stained site (µm^2) and an area of the artery (mm^2) were measured by means of an image analysis system (Adobe Photoshop, Unitimage for the Apple Macintosh) and a ratio of both values was calculated to determine a degree of lipid deposition on the arterial wall.\n(§1) A total blood cholesterol level was measured according to an enzyme method (Autosera CHO-2, Daiichi Kagaku Yakuhin K.K.) using an autoanalyzer (Hitachi 7150 type).\nThe drug was given in admixture with a high fat diet at the concentrations of 0.003% and of 0.03%, and a dose was calculated from the amount of feed ingested and the body weight.\nComposition of a high fat diet: A feed for rats MF (available from Oriental Kobo K.K.) to which 10% coconut oil and 0.05% cholesterol were supplemented. (Results)"}, "[2]": {"test_system": "cholesterol-loading rabbits", "assay": "Antiarteriosclerotic activity in a model for the treatment of arteriosclerosis in cholesterol-loading rabbits", "assay_type": "in vivo, rabbits (NZW strain male)", "conditions": "for inhibition at 3 mg/kg: Oryctolagus cuniculus", "procedure": "As test animals were used a group of 10 rabbits previously fed with a 1% cholesterol-enriched feed to develop atherosclerosis (of 5 months, NZW strain male; available from Kitayama RABES K.K.)\nA group of rabbits with arteriosclerosis were fed with a normal feed for rabbits RC-4 (available from Oriental Kobo K-K.) for 3 months and then adopted as a control group, while the compound of the invention was orally administered to a medicated group at 3 mg/kg once per day during this period.\nAfter blood collection, the common carotid artery and the aorta were excised and a certain site thereof was fixed with 10% neutral buffered formalin to prepare a slice of the arterial tissue. Elastin elastic fiber-stained preparations were prepared by Elastic Van Gieson (EVG) staining, fat-stained preparations were prepared by Oil Red O staining and smooth muscle-stained preparations were prepared by anti-human α-actin antibody 1A4 staining.\nA degree of intimal elastin fibrogenesis and a degree of medium lipid deposition were assessed in terms of 5 scores on elastin-positve and lipid staining-positive intensities (Grade; 0: No changes, 1: Minimum, 2: Mild, 3: Moderate, and 4: Severe). Areas of the intima (I) and of the medium (M) were measured by means of an image analysis system (Adobe Photoshop, Unitimage for the Apple Macintosh) and a ratio of both values (I/M) was calculated.\nAn elastin density of the fibrous cap in the intimal surface was calculated in terms of a ratio of the elastin-positive area to a given area of the intimal surface. A ratio of the α-actin-positive area to the intimal surface area at a similar site was defined as a smooth muscle density. Cholesterol was extracted from a portion of the excised aorta with a solution of chloroform : methanol (2:1) and was assayed according to an enzyme method (Cholesterol CII-Test WAKO, Free Cholesterol C-TEST WAKO, Wako Pure Chemical Industries, Ltd.)\nas §1"}, "[3]": {"test_system": "hereditary hyperlipemic WHHL rabbits", "assay": "Antiarteriosclerotic activity in hereditary hyperlipemic WHHL rabbits", "assay_type": "in vivo", "conditions": "for Total cholesterol in the arterial wall: 18 months, aorta; for Total cholesterol in the arterial wall / Total blood cholesterol / Intimal cholesterol deposition / Intimal surface elastin/collagen / Intimal collagen / Intimal elastin / Medium Elastin: Mean ± S.E.; for Total blood cholesterol: in feed over 18 months, at autopsy; for Intimal cholesterol deposition: plaque components in aortic arteriosclerosis; for Intimal cholesterol deposition / Intimal collagen / Intimal elastin / Medium Elastin: score, Grade 0-4; for Intimal surface elastin/collagen: ratio", "excerpt": "The compound of the invention was continuously administered to rabbits of 2 months with hereditary hyperlipemia (WHHL rabbits, available from Kitayama RABES K.K.) over 18 months and then the rabbits were autopsied.\nA portion of the aorta was fixed with 10% neutral buffered formalin and then embedded in paraffin or freeze-embedded to prepare a slice of the arterial tissue. The slice was stained with Hematoxylin and Eosin (HE), Elastic Van Gieson (EVG), Azan-Mallory, and Oil Red O. A positive rate was assessed under microscopic observation in terms of 5 scores (Grade; 0: No changes, 1: Minimum, 2: Mild, 3: Moderate, and 4: Severe) to measure changes in components in the arteriosclerotic lesion. For another portion of the aorta, cholesterol was extracted with a solution of chloroform methanol (2:1) and a total cholesterol level in the arterial wall was assayed according to an enzyme method (Cholesterol CII-Test WAKO, Wako Pure Chemical Industries, Ltd.)\nA total blood cholesterol level value at the autopsy was measured according to an enzyme method (Autosera CHO-2, Daiichi Kagaku Yakuhin K.K.) using an autoanalyzer (Hitachi 7150 type).\nThe drug was mixed into a feed for rabbits RC-4 (Oriental Kobo K.K.) at the concentrations of 0.005% and of 0.05%, and the resulting feed was given daily between 9:00 a.m. and 11:30 a.m. while the feed was restricted to 20 g/kg of body weight."}, "[4]": {"conditions": "3 mg/kg orally once per day, 3 months, aorta"}, "[5]": {"conditions": "3 mg/kg, score, Grade 0: No change to 4: Severe, Mean ± S.E."}}, "note": "Read-outs that look alike come from different tables or passages of the source. Marks after values point to notes of the source that are not given here.", "data": [{"smiles": "CCCCCCCCCCCCCCSCC(=O)Nc1c(C(C)C)cccc1C(C)C", "note": "[Compound of the invention]", "values": [{"measurement": "Degree of lipid deposition on the arterial wall", "setting": "[1]; 1.5 mg/kg", "result": "217.5±40.5* µm^2/mm^2"}, {"measurement": "Total blood cholesterol", "setting": "[1]; 1.5 mg/kg", "result": "372.0 ± 35.5", "unit": "mg/dL"}, {"measurement": "Degree of lipid deposition on the arterial wall", "setting": "[1]; 15 mg/kg", "result": "46.2± 8.6** µm^2/mm^2"}, {"measurement": "Total blood cholesterol", "setting": "[1]; 15 mg/kg", "result": "231.2 ± 4.9", "unit": "mg/dL"}, {"measurement": "inhibition at 1.5 mg/kg", "setting": "[1]; Mesocricetus auratus, 1.5 mg/kg, vs. control group, read-out: Degree of lipid deposition on the arterial wall Inhibition (%)", "result": 67.3, "unit": "%"}, {"measurement": "inhibition at 15 mg/kg", "setting": "[1]; Mesocricetus auratus, 15 mg/kg, vs. control group, read-out: Degree of lipid deposition on the arterial wall Inhibition (%)", "result": 93.1, "unit": "%"}, {"measurement": "Total blood cholesterol", "setting": "[2]; 3 mg/kg orally once per day, 3 months", "result": "113.4 ± 38.6", "unit": "mg/dL"}, {"measurement": "Degree of intimal thickening in the common carotid artery", "setting": "[2]; 3 mg/kg orally once per day, 3 months, I/M = Area of the intima/Area of the medium", "result": "0.45±0.18", "unit": "I/M"}, {"measurement": "Cholesteryl ester in the arterial wall", "setting": "[2]; [4]", "result": "219.1 ± 18.4", "unit": "mg/g"}, {"measurement": "Free cholesterol in the arterial wall", "setting": "[2]; [4]", "result": "119.1 ± 12.2", "unit": "mg/g"}, {"measurement": "Total cholesterol in the arterial wall", "setting": "[2]; [4]", "result": "338.2 ± 29.9", "unit": "mg/g"}, {"measurement": "Elastin density in the intimal surface", "setting": "[2]; 3 mg/kg, ratio of elastin-positive area to a given area of the intimal surface", "result": "151±30"}, {"measurement": "Density of smooth muscle in the intimal surface", "setting": "[2]; 3 mg/kg, ratio of α-actin-positive area to the intimal surface area", "result": "614±35"}, {"measurement": "Degree of intimal elastin fibrogenesis", "setting": "[2]; [5]", "result": "1.7±0.2"}, {"measurement": "Degree of medium lipid deposition", "setting": "[2]; [5]", "result": "1.2±0.1"}, {"measurement": "Degree of intimal elastin fibrogenesis Acceleration (%)", "setting": "[2]; 3 mg/kg, vs. control group", "result": 112.5, "unit": "%"}, {"measurement": "Density of smooth muscle in the intimal surface Acceleration (%)", "setting": "[2]; 3 mg/kg, vs. control group", "result": 18.5, "unit": "%"}, {"measurement": "Elastin density in the intimal surface Acceleration (%)", "setting": "[2]; 3 mg/kg, vs. control group", "result": 37.0, "unit": "%"}, {"measurement": "inhibition at 3 mg/kg", "setting": "[2]; 3 mg/kg, vs. control group, read-out: Cholesteryl ester in the arterial wall Inhibition (%)", "result": 24.1, "unit": "%"}, {"measurement": "inhibition at 3 mg/kg", "setting": "[2]; 3 mg/kg, vs. control group, read-out: Degree of intimal thickening in the common carotid artery Inhibition (%)", "result": 55.9, "unit": "%"}, {"measurement": "inhibition at 3 mg/kg", "setting": "[2]; 3 mg/kg, vs. control group, read-out: Degree of medium lipid deposition Inhibition (%)", "result": 47.8, "unit": "%"}, {"measurement": "regressing a degree of intimal thickening", "setting": "[2]; aortic arch, phase of the complete plaque", "result": "no action of regressing a degree of intimal thickening"}, {"measurement": "Total cholesterol in the arterial wall", "setting": "[3]; 1 mg/kg", "result": "29.3 ± 4.8", "unit": "mg/g"}, {"measurement": "Total blood cholesterol", "setting": "[3]; 1 mg/kg", "result": "462 ± 13", "unit": "mg/dL"}, {"measurement": "Intimal cholesterol deposition", "setting": "[3]; 1 mg/kg", "result": "2.6±0.2"}, {"measurement": "Intimal surface elastin/collagen", "setting": "[3]; 1 mg/kg", "result": "1.26±0.24"}, {"measurement": "Intimal collagen", "setting": "[3]; 1 mg/kg", "result": "3.0±0.2"}, {"measurement": "Intimal elastin", "setting": "[3]; 1 mg/kg", "result": "1.5±0.2"}, {"measurement": "Medium Elastin", "setting": "[3]; 1 mg/kg", "result": "0.93±0.20"}, {"measurement": "Total cholesterol in the arterial wall", "setting": "[3]; 10 mg/kg", "result": "32.2 ± 2.6", "unit": "mg/g"}, {"measurement": "Total blood cholesterol", "setting": "[3]; 10 mg/kg", "result": "438 ± 20", "unit": "mg/dL"}, {"measurement": "Intimal cholesterol deposition", "setting": "[3]; 10 mg/kg", "result": "2.2±0.1"}, {"measurement": "Intimal surface elastin/collagen", "setting": "[3]; 10 mg/kg", "result": "2.01±0.36"}, {"measurement": "Intimal collagen", "setting": "[3]; 10 mg/kg", "result": "3.0±0.1"}, {"measurement": "Intimal elastin", "setting": "[3]; 10 mg/kg", "result": "1.8±0.2"}, {"measurement": "Medium Elastin", "setting": "[3]; 10 mg/kg", "result": "1.59±0.09"}, {"measurement": "inhibition at 1 mg/kg", "setting": "[3]; Oryctolagus cuniculus, 1 mg/kg, vs. control group, read-out: Total cholesterol in the arterial wall Inhibition (%)", "result": 26.4, "unit": "%"}, {"measurement": "inhibition at 10 mg/kg", "setting": "[3]; Oryctolagus cuniculus, 10 mg/kg, vs. control group, read-out: Total cholesterol in the arterial wall Inhibition (%)", "result": 19.1, "unit": "%"}, {"measurement": "action on endothelial cells", "setting": "[3]; old WHHL rabbit lesion", "result": "compacting endothelial cells"}]}]}
